Structures can show the parent of a compound that is named as a salt.

The first assay has as its target T1, MerTK (Homo sapiens, UniProt Q12866).
T1 construct: endogenous in cells; host or cells: Jurkat cells
T1 sequence (Q12866 21-999): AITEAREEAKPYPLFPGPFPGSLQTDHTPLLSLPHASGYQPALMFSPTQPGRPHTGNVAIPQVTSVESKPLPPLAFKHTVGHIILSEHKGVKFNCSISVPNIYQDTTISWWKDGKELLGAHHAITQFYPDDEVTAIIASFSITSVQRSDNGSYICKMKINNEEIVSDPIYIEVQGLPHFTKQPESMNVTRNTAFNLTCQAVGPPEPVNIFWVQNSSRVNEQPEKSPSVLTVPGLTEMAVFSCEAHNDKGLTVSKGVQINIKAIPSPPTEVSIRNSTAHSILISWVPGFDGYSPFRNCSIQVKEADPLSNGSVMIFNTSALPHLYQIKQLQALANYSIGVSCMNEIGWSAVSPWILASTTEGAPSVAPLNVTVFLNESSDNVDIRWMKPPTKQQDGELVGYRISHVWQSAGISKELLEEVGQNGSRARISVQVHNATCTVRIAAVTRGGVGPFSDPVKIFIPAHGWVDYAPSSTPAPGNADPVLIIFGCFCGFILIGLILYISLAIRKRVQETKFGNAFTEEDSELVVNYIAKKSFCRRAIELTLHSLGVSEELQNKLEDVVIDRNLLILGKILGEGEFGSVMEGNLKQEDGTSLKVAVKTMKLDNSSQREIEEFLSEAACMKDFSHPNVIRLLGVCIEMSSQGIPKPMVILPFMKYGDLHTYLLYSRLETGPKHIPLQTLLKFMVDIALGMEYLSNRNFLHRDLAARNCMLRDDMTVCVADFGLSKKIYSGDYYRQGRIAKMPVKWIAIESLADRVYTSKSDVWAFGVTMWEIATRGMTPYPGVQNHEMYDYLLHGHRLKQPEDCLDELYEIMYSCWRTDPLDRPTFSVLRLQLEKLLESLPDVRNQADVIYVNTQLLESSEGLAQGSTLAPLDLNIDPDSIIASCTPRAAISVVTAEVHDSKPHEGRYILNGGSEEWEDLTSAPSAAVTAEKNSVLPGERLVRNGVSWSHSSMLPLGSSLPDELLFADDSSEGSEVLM
In words: MerTk degradation in Jurkat cells (Western blot). The class given is cell-based. The following applies: 0.001-1 μM, 4 hour-incubation at 37° C., read-out: Jurkat Max % MerTK Degradation. How it is done: Compounds were reconstituted in DMSO to make 10 mM stock solutions. […] Cells were seeded into 6-well plates with about 5×10^6 cells per well. 2 μL of diluted compounds were added to cells to the final concentration of 0.001-1 μM. After a 4 hour-incubation at 37° C., cells were collected into 2 mL Eppendorf tubes and centrifuged at 1,000 rpm for 5 min. The cell pellets were washed with DPBS (1×) once and resuspended in 60 μL RIPA lysis buffer with Halt Protease and Phophatase Inhibitor Cocktail. The cells were lysed on ice for 10 min, then centrifuged at 14,000 rpm for 10 min at 4° C. and the supernatants were collected for western blots.
The protein concentration of cell lysates was quantified with Pierce™ BCA Protein Assay Kit. […] BCA working reagents were prepared by mixing BCA reagent A with reagent B in 50: 1 ratio. 200 μL of the BCA working reagents were added to 25 μL of BCA standard or cell lysates in microplate, and mixed thoroughly on a plate shaker for 30 seconds. After incubation at 37° C. for 30 min, the absorbance of samples at 562 nm were measured with EnVision Plate Reader.
Protein lysates were prepared in NuPAGE™ LDS sample buffer and NuPAGE™ sample reducing agent, and incubated at 95° C. for 5 min. […] The proteins were transferred to low fluorescence PVDF membranes using the Trans-Blot Turbo Transfer System. Membranes were then blocked in Odyssey blocking buffer at RT for 1 h followed by primary incubation at 4° C. overnight. The primary antibodies were MerTK rabbit monoclonal antibody and actin mouse monoclonal antibody. Membranes were washed three times with TBST (1×), and then incubated with IR Dye 800 CW Goat anti-rabbit and IR Dye 700 CW Goat anti-mouse secondary antibodies in 1:10,000 dilution at RT for 1 h. The Western blot images were obtained using Odyssey Imaging System.
(In general: A western blot detects proteins with antibodies after separation by electrophoresis.)
On to `CN1CCN(Cc2ccc(-c3ccc(CO[C@H]4CCC[C@@H]4NC(=O)c4cc(-c5cnn(CCCCC(=O)NCCCOCCCc6ccc7c(c6)n(C)c(=O)n7C6CCC(=O)NC6=O)c5)cnc4N)cc3)cc2)CC1` (stereo partly shown) [I-39, formic acid], for which the Dmax was over 50%.

The same assay, now with this note: Jurkat, 4 h, 0.001-1 μM, 4 hour-incubation at 37° C., read-out: Jurkat Max % MerTK Degradation.
Take `CCCCNc1ncc2c(-c3ccc(CN4CCN(CCOCCOCCCc5ccc6c(c5)n(C)c(=O)n6[C@H]5CCC(=O)NC5=O)CC4)cc3)cn([C@H]3CC[C@H](O)CC3)c2n1` [I-42, 3-[5-[3-(2-[2-[4-([4-[2-(butylamino)-7-[trans-4-hydroxycyclohexyl]-7H-pyrrolo[2,3-d]pyrimidin-5-yl]phenyl]methyl)piperazin-1-yl]ethoxy]ethoxy)propyl]-3-methyl-2-oxo-2,3-dihydro-1H-1,3-benzodiazol-1-yl]piperidine-2,6-dione; formic acid]: the Dmax was over 50%. Take `CCCCNc1ncc2c(-c3ccc(CN4CCN(CCOCCCc5ccc6c(c5)n(C)c(=O)n6[C@H]5CCC(=O)NC5=O)CC4)cc3)cn([C@H]3CC[C@H](O)CC3)c2n1` [I-43, 3-[5-(3-[2-[4-([4-[2-(butylamino)-7-[trans-4-hydroxycyclohexy1]-7H-pyrrolo[2,3-d]pyrimidin-5-yl]phenyl]methyl)piperazin-1-y1]ethoxy]propyl)-3-methyl-2-oxo-2,3-dihydro-1H-1,3-benzodiazol-1-yl]piperidine-2,6-dione; formic acid]: the Dmax is over 50%. The same measure, in the same setting: under `CCCCNc1ncc2c(-c3ccc(CN4CCN(CCCc5ccc6c(c5)n(C)c(=O)n6[C@H]5CCC(=O)NC5=O)CC4)cc3)cn([C@H]3CC[C@H](O)CC3)c2n1` [I-44, 3-(5-[3-[4-([4-[2-(Butylamino)-7-[trans-4-hydroxycyclohexyl]-7H-pyrrolo[2,3-d]pyrimidin-5-yl]phenyl]methyl)piperazin-1-yl]propyl]-3-methyl-2-oxo-2,3-dihydro-1H-1,3-benzodiazol-1-y1)piperidine-2,6-dione; formic acid] stands under 20%; under `CCCCNc1ncc2c(-c3ccc(CNCCOCCOCCCc4ccc5c(c4)n(C)c(=O)n5[C@H]4CCC(=O)NC4=O)cc3)cn([C@H]3CC[C@H](O)CC3)c2n1` [I-45, 3-[5-[3-(2-[2-[([4-[2-(butylamino)-7-[trans-4-hydroxycyclohexy1]-7H-pyrrolo[2,3-d]pyrimidin-5-yl]phenyl]methyl)amino]ethoxy]ethoxy)propyl]-3-methyl-2-oxo-2,3-dihydro-1H-1,3-benzodiazol-1-y1]piperidine-2,6-dione; formic acid], over 50%; under `CCCCNc1ncc2c(-c3ccc(CNCCCc4ccc5c(c4)n(C)c(=O)n5[C@H]4CCC(=O)NC4=O)cc3)cn([C@H]3CC[C@H](O)CC3)c2n1` [I-46, 3-(5-[3-[([4-[2-(butylamino)-7-[trans-4-hydroxycyclohexyl]-7H-pyrrolo[2,3-d]pyrimidin-5-yl]phenyl]methyl)amino]propyl]-3-methyl-2-oxo-2,3-dihydro-1H-1,3-benzodiazol-1-yl)piperidine-2,6-dione; formic acid], over 50%. Still for that read-out and setting: under `Cn1c(=O)n([C@H]2CCC(=O)NC2=O)c2ccc(CCCOCCOCCOCCNCc3ccc(-c4cn([C@H]5CC[C@H](O)CC5)c5nc(NCCC(F)(F)F)ncc45)cc3)cc21` [I-47, 3-[3-methyl-2-oxo-5-[1-(4-[7-[trans-4-hydroxycyclohexy1]-2-[(3,3,3-trifluoropropyl)amino]-7H-pyrrolo[2,3-d]pyrimidin-5-yl]phenyl)-5,8,11-trioxa-2-azatetradecan-14-y1]-2,3-dihydro-1H-1,3-benzodiazol-1-yl]piperidine-2,6-dione] stands over 50%; under `Cn1c(=O)n([C@H]2CCC(=O)NC2=O)c2ccc(CCCOCCOCCNCc3ccc(-c4cn([C@H]5CC[C@H](O)CC5)c5nc(NCCC(F)(F)F)ncc45)cc3)cc21` [I-48, 3-(3-methyl-2-oxo-5-[3-[2-(2-[[(4-[7-[trans-4-hydroxycyclohexyl]-2-[(3,3,3-trifluoropropyl)amino]-7H-pyrrolo[2,3-d]pyrimidin-5-y1]phenyl)methyl]amino]ethoxy)ethoxy]propyl]-2,3-dihydro-1H-1,3-benzodiazol-1-y1)piperidine-2,6-dione], over 50%; under `CCCCNc1ncc2c(-c3ccc(CN4CCN(CCOCCOCCOCCCc5ccc6c(c5)n(C)c(=O)n6[C@H]5CCC(=O)NC5=O)CC4)cc3)nn([C@H]3CC[C@H](O)CC3)c2n1` [I-49, 3-(5-[3-[2-(2-[2-[4-([4-[6-(butylamino)-1-[trans-4-hydroxycyclohexy1]-1H-pyrazolo[3,4-d]pyrimidin-3-yl]phenyl]methyl)piperazin-1-yl]ethoxy]ethoxy)ethoxy]propyl]-3-methyl-2-oxo-2,3-dihydro-1H-1,3-benzodiazol-1-y1)piperidine-2,6-dione; formic acid], over 50%. In the case of `CCCCNc1ncc2c(-c3ccc(CN4CCN(CCOCCOCCCc5ccc6c(c5)n(C)c(=O)n6[C@H]5CCC(=O)NC5=O)CC4)cc3)nn([C@H]3CC[C@H](O)CC3)c2n1` [I-50, 3-[5-[3-(2-[2-[4-([4-[6-(butylamino)-1-[trans-4-hydroxycyclohexyl]-1H-pyrazolo[3,4-d]pyrimidin-3-yl]phenyl]methyl)piperazin-1-yl]ethoxy]ethoxy)propyl]-3-methyl-2-oxo-2,3-dihydro-1H-1,3-benzodiazol-1-y1]piperidine-2,6-dione; formic acid], the Dmax was over 50%. Regarding `Cn1c(=O)n([C@H]2CCC(=O)NC2=O)c2ccc(CCCOCCCOCCCNCc3ccc(-c4cn([C@H]5CC[C@H](O)CC5)c5nc(NCCC(F)(F)F)ncc45)cc3)cc21` [I-51, 3-(3-methyl-2-oxo-5-[3-[3-(3-[[(4-[7-[trans-4-hydroxycyclohexy1]-2-[(3,3,3-trifluoropropyl)amino]-7H-pyrrolo[2,3-d]pyrimidin-5-yl]phenyl)methyl]amino]propoxy)propoxy]propyl]-2,3-dihydro-1H-1,3-benzodiazol-1-y1)piperidine-2,6-dione hydrochloride], the Dmax was over 50%. Turning to `Cn1c(=O)n([C@H]2CCC(=O)NC2=O)c2cccc(CCCOCCCOCCCNCc3ccc(-c4cn([C@H]5CC[C@H](O)CC5)c5nc(NCCC(F)(F)F)ncc45)cc3)c21` [I-52, 3-(3-methyl-2-oxo-4-[3-[3-(3-[[(4-[7-[trans-4-hydroxycyclohexyl]-2-[(3,3,3-trifluoropropyl)amino]-7H-pyrrolo[2,3-d]pyrimidin-5-yl]phenyl)methyl]amino]propoxy)propoxy]propyl]-2,3-dihydro-1H-1,3-benzodiazol-1-y1)piperidine-2,6-dione hydrochloride], the Dmax is over 50%.

`CCCCNc1ncc2c(-c3ccc(CNCCCCOCCCCc4ccc5c(c4)n(C)c(=O)n5[C@H]4CCC(=O)NC4=O)cc3)cn([C@H]3CC[C@H](O)CC3)c2n1` [I-53, 3-[5-(4-[4-[([4-[2-(butylamino)-7-[trans-4-hydroxycyclohexyl]-7H-pyrrolo[2,3-d]pyrimidin-5-yl]phenyl]methyl)amino]butoxy]butyl)-3-methyl-2-oxo-2,3-dihydro-1H-1,3-benzodiazol-1-yl]piperidine-2,6-dione hydrochloride]: the Dmax was over 50%.

The values above are taken from US20260042762A1 (Kymera Therapeutics, Inc., priority 2018, published 2026).
